Drawing on PubChem BioAssay (NCI), this text covers TGI and GI50 for nine molecules.

Values joined by “and” are separate entries in the source; they are usually repeats but may differ in a detail not shown here. Equal values may be shown once.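 Values below derive from 48-hour exposures of cells grown in 96-well plates, with endpoints linearly interpolated between the two concentrations bracketing the appropriate inhibition level. GI50 marks 50% less growth. Definition used: TGI = concentration required for complete inhibition of growth.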

Test systems include M14 melanoma; SK-MEL-2 melanoma; U251 CNS; NCI-H522 lung; IGROV1 ovarian; MDA-MB-435; MDA-MB-231 breast; CCRF-CEM leukemia; CAKI-1 renal; MALME-3M melanoma.
Holding throughout (experiment): inhibition of tumour cell growth, NCI panel, 48 h

Turning to `NC(N)=NC(N)=Nc1ccc(S(N)(=O)=O)cc1`, the TGI in the test on M14 melanoma, in the test on SK-MEL-2 melanoma, in the test on U251 CNS, in the test with NCI-H522 lung, with IGROV1 ovarian and in the test with MDA-MB-435 was greater than 100 µM throughout. The TGI in the test with MDA-MB-231 breast, in the test on CCRF-CEM leukemia, in the test on CAKI-1 renal and with MALME-3M melanoma was greater than 100 µM throughout.

For the molecule `C[C@H](C(O)CC(=O)C(C)(C)O)[C@H]1CC[C@@]2(C)[C@@H]3CC[C@H]4C(C)(C)[C@@H](OC5OC(COC6OC(CO)C(O)C(O)C6O)C(O)C(O)C5O)CC[C@]4(C)C3=CC[C@]12C` (stereo partly drawn), the TGI with M14 melanoma, in the test with SK-MEL-2 melanoma, in the test with U251 CNS, in the test with NCI-H522 lung, in the test with IGROV1 ovarian and in the test on MDA-MB-435 was greater than 100 µM in each case. For the same molecule, the TGI in the test with MDA-MB-231 breast, in the test on CCRF-CEM leukemia, with CAKI-1 renal and in the test on MALME-3M melanoma was greater than 100 µM in each case.

For the molecule `Cc1ccccc1C[P+](c1ccccc1)(c1ccccc1)c1ccccc1`, the GI50 with SK-MEL-2 melanoma was 1.29 µM; in the test on U251 CNS, 1.35 µM; in the test on NCI-H522 lung, 0.78 µM; with IGROV1 ovarian, 2.42 µM; in the test with MDA-MB-435, 0.938 µM; with MDA-MB-231 breast, 2.04 µM. For the same molecule, the figures for the GI50 with CCRF-CEM leukemia, with CAKI-1 renal and in the test on MALME-3M melanoma were 2.04 µM, 23.6 µM and 4.72 µM, respectively. Also, the TGI is 68.4 µM in the test with SK-MEL-2 melanoma; greater than 100 µM in the test on U251 CNS; 5.73 µM in the test with NCI-H522 lung; greater than 100 µM in the test on IGROV1 ovarian; 21.3 µM in the test with MDA-MB-435; greater than 100 µM with MDA-MB-231 breast. The TGI in the test with CCRF-CEM leukemia, in the test with CAKI-1 renal and with MALME-3M melanoma was greater than 100 µM throughout.

Turning to `S=C1SCN(C2CCCCCCCCCCC2)CN1C1CCCCCCCCCCC1`, the TGI in the test on M14 melanoma, in the test with SK-MEL-2 melanoma, in the test on U251 CNS, in the test with NCI-H522 lung, with IGROV1 ovarian and in the test with MDA-MB-435 was greater than 100 µM in each case. Further, the TGI in the test with MDA-MB-231 breast, with CCRF-CEM leukemia, in the test on CAKI-1 renal and in the test with MALME-3M melanoma was greater than 100 µM each time.

For the molecule `COc1ccc2c(c1)c(-c1ccc(-c3cn(C)c4ccc(OC)cc34)o1)cn2C`, the GI50 with M14 melanoma was 16.7 µM; in the test with SK-MEL-2 melanoma, 2.13 µM; in the test on U251 CNS, 3.66 µM; in the test with NCI-H522 lung, 3.42 µM; in the test with IGROV1 ovarian, 29.6 µM; in the test on MDA-MB-435 it was 32.9 µM. The GI50 is 2.37 µM in the test on MDA-MB-231 breast, 6.46 µM with CCRF-CEM leukemia, 17.1 µM in the test with CAKI-1 renal and 52.8 µM in the test with MALME-3M melanoma. The TGI in the test with M14 melanoma was greater than 100 µM; in the test with SK-MEL-2 melanoma, 5.28 µM; with U251 CNS, 13.4 µM; in the test with NCI-H522 lung it was 10 µM; in the test on IGROV1 ovarian, greater than 100 µM; in the test on MDA-MB-435, greater than 100 µM. In addition, the TGI was 22.2 µM in the test on MDA-MB-231 breast, 78.4 µM in the test on CCRF-CEM leukemia, greater than 100 µM in the test on CAKI-1 renal and greater than 100 µM in the test on MALME-3M melanoma.

As to `Cc1ccc(-n2c3c(c4c(CN)c(O)ccc42)CCc2ccccc2C3=O)cc1`, the GI50 in the test on M14 melanoma was 5.5 µM; in the test on SK-MEL-2 melanoma it was 12 µM; in the test on U251 CNS it was 17.2 µM; in the test on NCI-H522 lung, 9.3 µM; in the test on IGROV1 ovarian, 8.18 µM; in the test with MDA-MB-435, 3 µM. Further, the GI50 in the test with MDA-MB-231 breast was 14.8 µM; in the test on CCRF-CEM leukemia, 2.66 µM; in the test with CAKI-1 renal it was 13 µM; with MALME-3M melanoma, 4.58 µM. In addition, the TGI turned out to be 18.9 µM with M14 melanoma; 26.9 µM in the test on SK-MEL-2 melanoma; 32.5 µM with U251 CNS; 23.6 µM in the test on NCI-H522 lung; 22.8 µM with IGROV1 ovarian; 8.87 µM in the test with MDA-MB-435. The TGI was 29.2 µM in the test with MDA-MB-231 breast, 8.44 µM in the test on CCRF-CEM leukemia, 26.6 µM in the test on CAKI-1 renal and 17.9 µM in the test with MALME-3M melanoma.

`CN(C)C1C(=O)C(C(N)=O)=C(O)C2(O)C(=O)C3=C(O)c4c(O)cccc4C(C)(O)C3CC12` (stereo not drawn): the GI50 in the test on M14 melanoma was 46.1 µM and > 100 µM; in the test on SK-MEL-2 melanoma it was 73 µM and 28 µM; in the test on MDA-MB-435 it was 21 µM and > 100 µM; in the test with MDA-MB-231 breast it was 26.2 µM and > 100 µM; in the test with CCRF-CEM leukemia, 22.8 µM and 67.5 µM. Moreover, the TGI with M14 melanoma was greater than 100 µM; in the test with SK-MEL-2 melanoma, > 100 µM and 91.8 µM; in the test with NCI-H522 lung it was greater than 100 µM; in the test with IGROV1 ovarian, greater than 100 µM; with MDA-MB-435, 36.8 µM and > 100 µM; in the test with MDA-MB-231 breast, greater than 100 µM. Besides, the TGI was 57.1 µM and > 100 µM in the test on CCRF-CEM leukemia; greater than 100 µM in the test with CAKI-1 renal; greater than 100 µM in the test with MALME-3M melanoma.

For `O=c1c(-c2nc3ccccc3[nH]2)cc2ccccc2n1Cc1cn(Cc2ccccc2Cl)nn1`, the GI50 with M14 melanoma is 2.65 µM; with SK-MEL-2 melanoma it was 3.07 µM; in the test with U251 CNS, 2.41 µM; in the test on NCI-H522 lung, 2.24 µM; with MDA-MB-435, 1.9 µM; in the test on MDA-MB-231 breast, 1.71 µM. Besides, the GI50 in the test with CCRF-CEM leukemia was 8.58 µM; with CAKI-1 renal, 1.93 µM; in the test on MALME-3M melanoma, 1.62 µM. The TGI was found to be 9.33 µM in the test on M14 melanoma; 10.8 µM with SK-MEL-2 melanoma; 7.13 µM in the test with U251 CNS; 7.98 µM with NCI-H522 lung; 3.93 µM in the test on MDA-MB-435; 3.79 µM with MDA-MB-231 breast. The TGI with CCRF-CEM leukemia was greater than 100 µM; with CAKI-1 renal it was 4.74 µM; in the test with MALME-3M melanoma it was 3.65 µM.

In the case of `CCCc1n(Cc2ccc3ccccc3n2)cc[n+]1Cc1ccc2ccccc2c1`, the GI50 in the test on M14 melanoma is 0.637 µM; with SK-MEL-2 melanoma, 1.06 µM; in the test on U251 CNS, 0.38 µM; in the test on NCI-H522 lung it was 0.249 µM; in the test with IGROV1 ovarian, 0.807 µM; in the test on MDA-MB-435, 0.443 µM. Further, the values for the GI50 with MDA-MB-231 breast, in the test on CCRF-CEM leukemia and in the test on MALME-3M melanoma were 1.05 µM, 0.688 µM and 0.526 µM, respectively. In addition, the TGI with M14 melanoma was found to be 2.76 µM; in the test with SK-MEL-2 melanoma, 2.85 µM; with U251 CNS, 2.54 µM; with NCI-H522 lung it was 1.13 µM; with IGROV1 ovarian, 3.48 µM; with MDA-MB-435 it was 2.17 µM. Also, the TGI in the test with MDA-MB-231 breast is 2.86 µM; with CCRF-CEM leukemia, 6.1 µM; in the test on MALME-3M melanoma, 2.75 µM.
